Like-named read-outs stand apart in the source and are kept apart here.
Legend:
BxPC3 cells = assay: Histone acetylation in BxPC3 cells after drug treatment; type: cell-based, human; conditions: for EC50: read-out: apparent EC50 for activation; for Mean fold-change in acetylation: TSA 0.5 μM
CBP = CBP (Homo sapiens, UniProt Q92793); assay: C646 titration of CBP acetylation of H3/H4 under kcat conditions; type: biochemical
CBP, sequence (Q92793 whole entry): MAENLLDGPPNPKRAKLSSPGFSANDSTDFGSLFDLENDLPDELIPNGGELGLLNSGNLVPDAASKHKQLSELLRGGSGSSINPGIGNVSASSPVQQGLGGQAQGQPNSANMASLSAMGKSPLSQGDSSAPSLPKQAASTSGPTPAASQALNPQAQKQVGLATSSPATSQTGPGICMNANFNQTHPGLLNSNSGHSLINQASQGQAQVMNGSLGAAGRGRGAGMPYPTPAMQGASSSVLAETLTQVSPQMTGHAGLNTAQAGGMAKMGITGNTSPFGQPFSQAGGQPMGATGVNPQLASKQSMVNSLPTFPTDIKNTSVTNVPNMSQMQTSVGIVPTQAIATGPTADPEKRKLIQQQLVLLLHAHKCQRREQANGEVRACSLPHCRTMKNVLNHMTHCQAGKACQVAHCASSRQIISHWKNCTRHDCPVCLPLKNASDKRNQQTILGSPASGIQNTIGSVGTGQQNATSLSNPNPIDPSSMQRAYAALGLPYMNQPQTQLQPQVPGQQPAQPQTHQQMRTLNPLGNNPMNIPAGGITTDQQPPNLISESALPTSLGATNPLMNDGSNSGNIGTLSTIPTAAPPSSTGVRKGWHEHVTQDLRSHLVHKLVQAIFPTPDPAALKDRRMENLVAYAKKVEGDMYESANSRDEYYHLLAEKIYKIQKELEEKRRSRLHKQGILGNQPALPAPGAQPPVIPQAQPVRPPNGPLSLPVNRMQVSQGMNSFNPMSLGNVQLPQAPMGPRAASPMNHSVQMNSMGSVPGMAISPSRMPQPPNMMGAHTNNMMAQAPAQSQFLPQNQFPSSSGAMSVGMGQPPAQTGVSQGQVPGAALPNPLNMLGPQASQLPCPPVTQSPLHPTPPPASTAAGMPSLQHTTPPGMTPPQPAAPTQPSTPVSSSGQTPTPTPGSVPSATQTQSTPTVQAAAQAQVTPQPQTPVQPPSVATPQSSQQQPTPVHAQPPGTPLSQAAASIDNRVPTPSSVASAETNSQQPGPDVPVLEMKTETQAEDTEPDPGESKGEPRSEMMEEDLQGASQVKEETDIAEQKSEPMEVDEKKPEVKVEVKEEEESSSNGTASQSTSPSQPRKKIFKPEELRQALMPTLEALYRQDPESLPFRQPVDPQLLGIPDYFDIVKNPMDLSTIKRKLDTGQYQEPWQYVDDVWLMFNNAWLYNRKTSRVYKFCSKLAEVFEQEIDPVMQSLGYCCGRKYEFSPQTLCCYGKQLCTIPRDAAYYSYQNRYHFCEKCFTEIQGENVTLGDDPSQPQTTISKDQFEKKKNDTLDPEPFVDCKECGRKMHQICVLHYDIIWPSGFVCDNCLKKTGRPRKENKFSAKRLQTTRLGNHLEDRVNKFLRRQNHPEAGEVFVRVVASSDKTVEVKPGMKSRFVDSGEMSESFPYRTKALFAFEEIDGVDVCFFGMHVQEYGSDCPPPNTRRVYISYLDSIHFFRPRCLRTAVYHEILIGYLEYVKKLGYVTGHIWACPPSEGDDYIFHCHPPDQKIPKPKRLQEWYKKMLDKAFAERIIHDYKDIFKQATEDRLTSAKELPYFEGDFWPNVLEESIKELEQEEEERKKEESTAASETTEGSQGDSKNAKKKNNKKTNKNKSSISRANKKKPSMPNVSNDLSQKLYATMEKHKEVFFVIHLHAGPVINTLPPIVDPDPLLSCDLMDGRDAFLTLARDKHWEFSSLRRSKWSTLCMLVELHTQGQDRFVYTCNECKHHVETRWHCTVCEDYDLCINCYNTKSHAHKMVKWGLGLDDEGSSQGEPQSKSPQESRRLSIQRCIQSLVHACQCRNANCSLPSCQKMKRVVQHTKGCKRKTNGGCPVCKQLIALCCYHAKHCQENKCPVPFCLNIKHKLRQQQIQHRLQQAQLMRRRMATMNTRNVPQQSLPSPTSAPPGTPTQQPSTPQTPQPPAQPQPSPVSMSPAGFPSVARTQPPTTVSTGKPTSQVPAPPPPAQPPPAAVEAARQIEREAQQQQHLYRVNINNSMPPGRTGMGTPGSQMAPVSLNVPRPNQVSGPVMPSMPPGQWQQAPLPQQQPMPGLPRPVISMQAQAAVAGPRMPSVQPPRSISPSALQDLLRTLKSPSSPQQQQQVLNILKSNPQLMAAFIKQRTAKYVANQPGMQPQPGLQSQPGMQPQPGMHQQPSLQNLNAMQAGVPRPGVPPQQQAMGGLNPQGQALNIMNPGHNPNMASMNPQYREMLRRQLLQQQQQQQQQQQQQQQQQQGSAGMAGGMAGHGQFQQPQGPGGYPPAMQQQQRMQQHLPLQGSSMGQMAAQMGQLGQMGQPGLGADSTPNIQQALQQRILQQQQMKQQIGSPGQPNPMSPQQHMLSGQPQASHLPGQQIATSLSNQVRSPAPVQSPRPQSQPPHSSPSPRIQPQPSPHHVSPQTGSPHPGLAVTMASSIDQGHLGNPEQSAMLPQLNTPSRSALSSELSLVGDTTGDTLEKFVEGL

SMILES: CC1=NN(c2ccc(C(=O)O)cc2)C(=O)/C1=C\c1ccc(-c2cc(C)c(C)cc2[N+](=O)[O-])o1 [C646]
- stimulation of acetylation in parental BxPC3 cells (BxPC3 cells; parental cells, compared with p300-depleted cells): ≤ 2.5 fold
- EC50 (BxPC3 cells; site H3K18, 4 hours): ~400 nM
- EC50 (BxPC3 cells; site H3K23, 4 hours): ~400 nM
- IC50 (BxPC3 cells; read-out: apparent IC50 of inhibition, site H3K18, 4 hours): ~6800 nM
- C646 concentration range inhibiting CBP (CBP; compared with p300): within the nanomolar range
- effect of C646 on CBP acetylation activity (CBP; kcat conditions, other sites mainly displayed an inhibitory effect): biphasic dependence for H3K18

SMILES: CC(C)(CCCCCCCCCCC(C)(C)CC(=O)O)CC(=O)O [MEDICA 16, beta, beta’-tetramethylhexadecanedioic acid]
- effect of MEDICA 16 pretreatment on the acetylation response to C646 (BxPC3 cells; 5 μM MEDICA 16 for 24 hours prior to […] C646): muted stimulatory response to C646

SMILES: CC(/C=C/C(=O)NO)=C\[C@@H](C)C(=O)c1ccc(N(C)C)cc1 [TSA]
- Mean fold-change in acetylation (BxPC3 cells; site H3K9, 4 hours, after 16 hours of serum starvation): 3.02 fold
- Mean fold-change in acetylation (BxPC3 cells; site H3K9, 4 hours, no starvation): 68.56 fold
- increase of acetylation relative to C646 (BxPC3 cells; site H3K9, TSA versus C646): 42 fold
- Mean fold-change in acetylation (BxPC3 cells; site H3K14, 4 hours, after 16 hours of serum starvation): 1.65 fold
- Mean fold-change in acetylation (BxPC3 cells; site H3K14, 4 hours, no starvation): 2.412 fold
- Mean fold-change in acetylation (BxPC3 cells; site H3K18, 4 hours, after 16 hours of serum starvation): 1.94 fold
- Mean fold-change in acetylation (BxPC3 cells; site H3K23, 4 hours, after 16 hours of serum starvation): 1.78 fold
- Mean fold-change in acetylation (BxPC3 cells; site H3K23, 4 hours, no starvation): 2.83 fold
